The values below come from patent US20230135524A1, “ARYL HYDANTOIN HETEROCYCLES AND METHODS OF USE” (The United States of America,as represented by the …, priority 2020, published 2023).

One experiment addresses T1, AR (Homo sapiens, UniProt P10275).
T1 construct: host or cells: HEK 293T
T1 sequence (P10275 1-920): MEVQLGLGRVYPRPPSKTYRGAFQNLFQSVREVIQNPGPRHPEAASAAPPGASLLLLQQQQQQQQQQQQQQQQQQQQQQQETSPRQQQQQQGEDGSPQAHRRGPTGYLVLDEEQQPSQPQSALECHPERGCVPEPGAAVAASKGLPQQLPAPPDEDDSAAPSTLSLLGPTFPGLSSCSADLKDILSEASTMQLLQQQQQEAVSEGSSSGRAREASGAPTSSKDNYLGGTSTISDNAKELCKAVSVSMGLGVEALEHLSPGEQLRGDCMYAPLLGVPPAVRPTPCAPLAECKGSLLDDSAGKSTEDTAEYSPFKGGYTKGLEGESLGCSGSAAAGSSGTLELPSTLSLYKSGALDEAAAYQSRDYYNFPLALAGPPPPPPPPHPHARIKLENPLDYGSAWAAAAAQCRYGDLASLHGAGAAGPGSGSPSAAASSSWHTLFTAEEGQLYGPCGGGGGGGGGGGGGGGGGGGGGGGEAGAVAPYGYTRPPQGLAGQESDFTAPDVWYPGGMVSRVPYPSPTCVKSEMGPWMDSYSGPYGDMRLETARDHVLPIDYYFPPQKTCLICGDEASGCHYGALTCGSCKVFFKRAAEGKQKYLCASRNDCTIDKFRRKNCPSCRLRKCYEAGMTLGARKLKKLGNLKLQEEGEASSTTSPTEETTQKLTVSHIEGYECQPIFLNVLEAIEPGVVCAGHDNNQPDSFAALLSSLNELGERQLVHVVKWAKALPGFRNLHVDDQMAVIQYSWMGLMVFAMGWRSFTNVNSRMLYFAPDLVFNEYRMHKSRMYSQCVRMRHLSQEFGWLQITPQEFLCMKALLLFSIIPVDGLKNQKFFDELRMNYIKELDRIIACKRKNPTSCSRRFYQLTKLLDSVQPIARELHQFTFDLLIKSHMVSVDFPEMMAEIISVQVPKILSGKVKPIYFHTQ
The experiment is described as follows: AR transcriptional output, ARE-luciferase assay in HEK 293T cells. The format is cell-based. The method, then:
100% is set to the activity with 200 μM testosterone, and 0% is set to the basal level (no ligand).
Cells were maintained in steroid free media, and stimulated with 200 μM testosterone, followed immediately by administration of exemplary compounds (Table 1, below). RLU is relative luciferase units, relative to DMSO control with 200 μM testosterone alone. Data represent an average of 3 independent experiments performed in triplicate wells per compounds at 10 μM.
Cells were maintained in steroid-free media, and stimulated with 200 μM testosterone, followed immediately by administration of a test compound. […] Compounds were dosed at 10 μM in FIGS. 6A and 6B.
Cells were maintained in steroid-free media, and stimulated with 200 μM testosterone, followed immediately by administration of a test compound.

A further experiment addresses T2, Androgen Receptor (UniProt P10275).
T2 sequence (P10275 1-920): T1 sequence (P10275 1-920)
Kind of experiment: Radioligand competition binding, [3H] methyltrienolone. The conditions noted are these: competition with 0.5 nM [3H] methyltrienolone. The method, then:
(§1) Binding assays were performed via competition with radioactive ligands across a range of dose of compounds 15a and 19d. For aldosterone binding, the aldosterone receptor was incubated for 20 hours with […] aldosterone. Similarly, the androgen receptor was co-incubated with 0.5 nM of [^3H] methyltrienolone, the estrogen receptor alpha was co-incubated with 0.5 nM [^3H] estradiol, the glucocorticoid receptor with 0.5 nM [^3H] dexamethasone, and the progesterone receptor with 0.5 nM [^3H] progesterone as parent ligands.
On the technique in general: In a radioligand displacement assay an active substance lowers the binding of a labelled ligand.

The test system of another experiment is LNCaP. The experiment is described as follows: IncuCyte % confluence cell growth inhibition, LNCaP. The format is cell-based. The conditions noted are these: Homo sapiens, read-out: IC50 values (μM), LNCaP. The method, then:
(§2) Images were then analyzed to discern the % confluence of cells in each well. IC50 values were calculated from dose response curves of the % cell growth inhibition relative to DMSO control at the same time point per each cell line.

Another experiment concerns LNCaP ARF876L. Kind of experiment: IncuCyte % confluence cell growth inhibition, LNCaP ARF876L. The conditions noted are these: Homo sapiens, AR-positive, AR mutation F876L, % cell growth inhibition relative to DMSO. The class given is cell-based. The method, then:
as §2

Another experiment deals with Estrogen Receptor alpha (Homo sapiens, UniProt P03372). Kind of experiment: Radioligand competition binding, [3H] estradiol. The conditions noted are these: competition with 0.5 nM [3H] estradiol. As to the method:
as §1

A further experiment addresses T3, Glucocorticoid Receptor (Homo sapiens, UniProt P04150).
T3 sequence (P04150 1-777): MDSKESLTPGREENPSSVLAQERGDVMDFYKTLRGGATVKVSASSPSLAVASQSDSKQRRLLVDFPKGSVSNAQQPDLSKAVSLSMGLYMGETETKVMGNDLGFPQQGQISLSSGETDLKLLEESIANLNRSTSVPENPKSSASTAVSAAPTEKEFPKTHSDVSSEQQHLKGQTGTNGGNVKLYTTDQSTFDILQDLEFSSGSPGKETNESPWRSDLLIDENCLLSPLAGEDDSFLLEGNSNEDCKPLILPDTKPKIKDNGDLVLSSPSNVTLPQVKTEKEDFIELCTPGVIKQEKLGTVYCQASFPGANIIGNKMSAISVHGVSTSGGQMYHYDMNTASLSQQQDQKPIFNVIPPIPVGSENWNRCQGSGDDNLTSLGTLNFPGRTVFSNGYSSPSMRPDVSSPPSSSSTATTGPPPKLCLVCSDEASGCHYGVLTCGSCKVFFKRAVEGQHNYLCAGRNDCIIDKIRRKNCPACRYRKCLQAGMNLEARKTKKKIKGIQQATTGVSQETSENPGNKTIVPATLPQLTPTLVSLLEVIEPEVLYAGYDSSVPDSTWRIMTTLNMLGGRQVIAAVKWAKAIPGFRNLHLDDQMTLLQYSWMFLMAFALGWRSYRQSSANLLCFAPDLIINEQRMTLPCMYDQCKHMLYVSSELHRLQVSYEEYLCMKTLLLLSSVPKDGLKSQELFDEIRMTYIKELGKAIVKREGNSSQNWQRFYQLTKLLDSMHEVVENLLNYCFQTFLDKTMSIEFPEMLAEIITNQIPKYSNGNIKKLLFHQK
The experiment is described as follows: Radioligand competition binding, [3H] dexamethasone. The conditions noted are these: competition with 0.5 nM [3H] dexamethasone. The method, then:
as §1

The next experiment concerns DU145. Kind of experiment: IncuCyte % confluence cell growth inhibition, DU145. The class given is cell-based. The conditions noted are these: Homo sapiens, DU-145, read-out: IC50 values (μM), DU145. The method, then: as §2

The IC50 is the concentration needed to halve the response being measured.

Sequence of Estrogen Receptor alpha (P03372 whole entry): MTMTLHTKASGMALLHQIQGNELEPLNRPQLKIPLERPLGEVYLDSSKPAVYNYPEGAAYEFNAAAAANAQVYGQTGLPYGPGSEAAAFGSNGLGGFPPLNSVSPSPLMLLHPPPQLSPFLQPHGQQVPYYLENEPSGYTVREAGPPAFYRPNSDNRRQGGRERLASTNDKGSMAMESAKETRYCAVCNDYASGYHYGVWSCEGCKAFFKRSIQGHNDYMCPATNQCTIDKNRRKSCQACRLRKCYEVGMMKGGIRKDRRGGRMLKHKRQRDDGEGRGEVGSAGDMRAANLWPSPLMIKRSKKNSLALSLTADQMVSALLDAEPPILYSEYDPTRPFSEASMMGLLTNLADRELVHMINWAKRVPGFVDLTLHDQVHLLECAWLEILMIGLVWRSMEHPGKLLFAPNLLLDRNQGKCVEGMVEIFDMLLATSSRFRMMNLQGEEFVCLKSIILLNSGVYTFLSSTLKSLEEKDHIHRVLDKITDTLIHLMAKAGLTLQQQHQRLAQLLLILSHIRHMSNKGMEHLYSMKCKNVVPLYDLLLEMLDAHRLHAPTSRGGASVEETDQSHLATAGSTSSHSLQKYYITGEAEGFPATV

Take `CC1(C)C(=O)N(c2ccc(C#N)c(C(F)(F)F)c2)C(=S)N1Cc1ccc(-c2c[nH]nn2)cc1` [Compound 15a, 4-(3-(4-(1H-1,2,3-triazol-4-yl)benzyl)-4,4-dimethyl-5-oxo-2-thioxoimidazolidin-1-yl)-2-(trifluoromethyl)benzonitrile]: the “antagonist or inverse agonist activity on AR transcriptional activity (in words)” value at AR (10 μM, HEK 293T, FIG. 6A) was “reduced the transcriptional activity of the AR well below the expression in the absence of any steroids or ligands”. Also, the activity at 10 µM at AR (HEK-293T, read-out: AR antagonist activity (% RLU)) is -109%. The IC50 is 12.5 nM on Androgen Receptor; 30.5 µM in the experiment on LNCaP; 21 µM with LNCaP ARF876L; more than 10000 nM at Estrogen Receptor alpha; more than 10000 nM at Glucocorticoid Receptor; 37.3 µM in the experiment on DU145.

Take `CC1(C)C(=O)N(c2ccc(C#N)c(C(F)(F)F)c2)C(=S)N1Cc1ccc(-c2c[nH]nn2)cc1F` [Compound 19d, 4-(3-(2-Fluoro-4-(1H-1,2,3-triazol-4-yl)benzyl)-4,4-dimethyl-5-oxo-2-thioxoimidazolidin-1-yl)-2-(trifluoromethyl)benzonitrile]: the concentration for half-maximal inhibition (IC50) at Androgen Receptor is 9.3 nM; in the experiment on LNCaP, 35.7 µM; in the experiment on LNCaP ARF876L, 22.3 µM; on Estrogen Receptor alpha, more than 10000 nM; at Glucocorticoid Receptor, more than 10000 nM; in the experiment with DU145, 53.6 µM.
